According to patent US5622962A, “5α-reductase inhibitors” (priority 1995, dated 1997):
Where two headings read alike, the source gives them in different places.

Key:
[1] = target: T1, Type I 5α-Reductase from Human Scalp (Homo sapiens, UniProt P18405); assay: Human Type I 5α-reductase assay (conversion of [3H]-testosterone to 5α-reduced metabolites); type: biochemical
T1 construct: Scalp punch biopsies from graft recipient sites were obtained from human hair transplant procedures; from tissue; host or cells: human scalp punch biopsies (hair transplant graft recipient sites), homogenate, 100,000×g pellet
T1 sequence (P18405 1-259): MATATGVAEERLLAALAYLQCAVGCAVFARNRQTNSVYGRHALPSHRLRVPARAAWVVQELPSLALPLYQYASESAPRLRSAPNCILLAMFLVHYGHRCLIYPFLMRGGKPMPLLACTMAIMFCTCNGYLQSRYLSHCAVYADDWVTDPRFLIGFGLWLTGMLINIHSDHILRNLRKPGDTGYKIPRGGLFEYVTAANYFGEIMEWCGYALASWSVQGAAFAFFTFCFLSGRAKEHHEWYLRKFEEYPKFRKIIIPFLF

[2] = target: T2, Type II 5α-Reductase from Human Prostate (Homo sapiens, UniProt P31213); assay: Human Type II 5α-reductase assay (conversion of [3H]-testosterone to 5α-reduced metabolites); type: biochemical
T2 construct: The same procedure as above was used for preparations using tissue from prostate surgery; from tissue; host or cells: human prostate tissue from surgery, homogenate, 100,000×g pellet
T2 sequence (P31213 1-254): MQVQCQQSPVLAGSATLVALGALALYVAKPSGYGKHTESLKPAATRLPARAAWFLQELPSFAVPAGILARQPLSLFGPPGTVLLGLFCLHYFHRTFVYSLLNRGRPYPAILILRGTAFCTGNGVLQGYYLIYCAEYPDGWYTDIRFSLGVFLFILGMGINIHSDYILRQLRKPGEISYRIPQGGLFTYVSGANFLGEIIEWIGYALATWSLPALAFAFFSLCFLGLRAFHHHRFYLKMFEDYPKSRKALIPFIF

[3] = pH 7.5, 0.3 μM, 50 nM [3H]-testosterone, pH 7.5, 25°, 180 min, compared to control reaction mixtures, read-out: percent inhibition of Type I AR
[4] = pH 5.5, 0.3 μM, sodium acetate pH 5.5, 25°, 30 min, compared to control reaction mixtures, read-out: percent inhibition of Type II AR

Row | Compound | inhibition at 0.3 µM [1, 3] [%] | inhibition at 0.3 µM [2, 4] [%] | other results
1 | CN1C(=O)CC[C@]2(C)c3ccc(-c4cccc(CNC(c5ccccc5)c5ccccc5)c4)cc3CC[C@@H]12 [Example 292, (+)-(4aR)-(10bR)-4-methyl-8-(3-diphenylmethylaminomethylphenyl)-10b-methyl-1,2,3,4,4a,5,6,10b-octahydrobenzo[f]quinolin-3-one] | 86 | 11 | –
2 | Cc1ccccc1Sc1ccc2c(c1)CC[C@H]1N(C)C(=O)CC[C@]21C [Example 101, (+)-(4aR)-(10bR)-4,10b-dimethyl-8-(2-methylphenylthio)-1,2,3,4,-4a,5,6,10b-octahydrobenzo[f]quinolin-3-one] | 75 | 43 | –
3 | CC(=O)N1CCc2cc(-c3ccc4c(c3)CC[C@H]3N(C)C(=O)CC[C@]43C)cc([N+](=O)[O-])c21 [Example 237, (+)-(4aR)-(10bR)-4-methyl-8-(1-acetyl-7-nitroindolin-5-yl)-10b-methyl-1,2,3,4,4a,5,6,10b-octahydrobenzo[f]quinolin-3-one] | 33 | 13 | –
4 | CN1C(=O)CC[C@]2(C)c3ccc(-c4cc5ccccc5s4)cc3CC[C@@H]12 [Example 82, (+)-(4aR)-(10bR)-4-methyl-8-(2-benzothienyl)-10b-methyl-1,2,3,4,4a,5,6,10b-octahydrobenzo-[f]quinolin-3-one] | 85 | 31 | –
5 | CN1C(=O)CC[C@]2(C)c3ccc(Sc4ccc5cc(F)ccc5n4)cc3CC[C@@H]12 [Example 173, (+)-(4aR)-(10bR)-4-methyl-8-(6-fluoro-2-quinolinylthio)-10b-methyl-1,2,3,4,4a,5,6,10b-octahydrobenzo[f]quinolin-3-one] | 65 | 78 | percent inhibition of Type II AR ([2]; 0.3 μM, sodium acetate pH 5.5, 25°, 30 min, compared to control reaction mixtures): 77%
6 | CN1C(=O)CC[C@]2(C)c3ccc(-c4ccc(C(F)(F)F)cc4F)cc3CC[C@@H]12 [Example 210, (+)-(4aR)-(10bR)-4-methyl-8-(2-fluoro-4-trifluoromethylphenyl)-10b-methyl-1,2,3,4,4a,5,6,10b-octahydrobenzo[f]-quinolin-3-one] | – | – | inhibition at 0.3 µM ([1]; pH 7.5, read-out: percent inhibition of Type I AR): 81%; inhibition at 0.3 µM ([2]; pH 5.5, read-out: percent inhibition of Type II AR): 38%
7 | Cc1ccc(C(F)(F)F)c2sc(Sc3ccc4c(c3)CC[C@H]3N(C)C(=O)CC[C@]43C)nc12 [Example 190, (+)-(4aR)-(10bR)-4-methyl-8-(4-methyl-7-trifluoromethyl-2-benzothiazolylthio)-10b-methyl-1,2,3,4,4a,5,6,10b-octahydrobenzo[f]quinolin-3-one] | 76 | 26 | –
8 | CN1C(=O)CC[C@]2(C)c3ccc(-c4cnc5ccccc5n4)cc3CC[C@@H]12 [Example 255, (+)-(4aR)-(10bR)-4-methyl-8-(2-quinoxalinyl)-10b-methyl-1,2,3,4,4a,5,6,10b-octahydrobenzo[f]quinolin-3-one] | 71 | 37 | –
9 | CN1C(=O)CC[C@]2(C)c3ccc(-c4ccc(C(F)(F)F)cc4[N+](=O)[O-])cc3CC[C@@H]12 [Example 134, (+)-(4aR)-(10bR)-4-methyl-8-(2-nitro-4-trifluoromethylphenyl)-10b-methyl-1,2,3,4,4a,5,6,10b-octahydrobenzo[f]-quinolin-3-one] | 97 | 46 | –
10 | CN1C(=O)CC[C@]2(C)c3ccc(Sc4ccc([N+](=O)[O-])cn4)cc3CC[C@@H]12 [Example 166, (+)-(4aR)-(10bR)-4-methyl-8-(5-nitro-2-pyridinylthio)-10b-methyl-1,2,3,4,4a,5,6,10b-octahydrobenzo[f]quinolin-3-one] | 50 | 49 | –
11 | CN1C(=O)CC[C@]2(C)c3ccc(-c4ncccn4)cc3CC[C@@H]12 [Example 254, (+)-(4aR)-(10bR)-4-methyl-8-(2-pyrimidinyl)-10b-methyl-1,2,3,4,4a,5,6,10b-octahydrobenzo[f]quinolin-3-one] | 37 | 28 | –
12 | CN(C)CCN1C(=O)c2cccc3c(-c4ccc5c(c4)CC[C@H]4N(C)C(=O)CC[C@]54C)ccc(c23)C1=O [Example 224, (+)-(4aR)-(10bR)-4-methyl-8-(2-(2-dimethylaminoethyl)-1H-benzo<de>isoquinolin-6-yl-1,3-(2H)dione)-10b-methyl-1,2,3,4,4a,5,6,10b-octahydrobenzo[f]quinolin-3-one] | 71 | 20 | –
13 | CN1C(=O)CC[C@]2(C)c3ccc(-c4n[nH]c5ccccc45)cc3CC[C@@H]12 [Example 257, (+)-(4aR)-(10bR)-4-methyl-8-(3-indazolyl)-10b-methyl-1,2,3,4,4a,5,6,10b-octahydrobenzo[f]quinolin-3-one] | 36 | 58 | –
14 | COc1ccccc1Sc1ccc2c(c1)CC[C@H]1N(C)C(=O)CC[C@]21C [Example 104, (+)-(4aR)-(10bR)-4,10b-dimethyl-8-(2-methoxyphenylthio)-1,2,3,4,-4a,5,6,10b-octahydrobenzo[f]quinolin-3-one] | 89 | 41 | –
15 | CN1C(=O)CC[C@]2(C)c3ccc(C(=O)OCc4ccccc4)cc3CC[C@@H]12 [Example 144, (+)-(4aR)-(10bR)-4-methyl-8-benzyloxycarbonyl-10b-methyl-1,2,3,4,4a,5,6,10b-octahydrobenzo[f]quinolin-3-one] | 90 | 40 | –
16 | CN1C(=O)CC[C@]2(C)c3ccc(-c4cccc5cccnc45)cc3CC[C@@H]12 [Example 239, (+)-(4aR)-(10bR)-4-methyl-8-(8-quinolinyl)-10b-methyl-1,2,3,4,4a,5,6,10b-octahydrobenzo[f]quinolin-3-one] | 42 | 27 | –
17 | COc1cccc2sc(Sc3ccc4c(c3)CC[C@H]3N(C)C(=O)CC[C@]43C)nc12 [Example 182, (+)-(4aR)-(10bR)-4-methyl-8-(4-methoxy-2-benzothiazolylthio)-10b-methyl-1,2,3,4,4a,5,6,10b-octahydrobenzo[f]quinolin-3-one] | 63 | 100 | –

Further lines, with some results ahead:

Row | inhibition at 0.3 µM [1, 3] [%] | inhibition at 0.3 µM [2, 4] [%] | Compound | other results
18 | 95 | 35 | CN1C(=O)CC[C@]2(C)c3ccc(Sc4ccc(Cl)cc4)cc3CC[C@@H]12 [Example 95, (+)-(4aR)-(10bR)-4,10b-dimethyl-8-(4-chlorophenylthio)-1,2,3,4,-4a,5,6,10b-octahydrobenzo[f]quinolin-3-one] | –
19 | 76 | 29 | CN1C(=O)CC[C@]2(C)c3ccc(-c4cccc(C(F)(F)F)c4)cc3CC[C@@H]12 [Example 80, (+)-(4aR)-(10bR)-4-methyl-8-(3-trifluoromethylphenyl)-10b-methyl-1,2,3,4,4a,5,6,10b-octahydrobenzo[f]quinolin-3-one] | –
20 | 70 | 29 | CN1C(=O)CC[C@]2(C)c3ccc(-c4cc(C(F)(F)F)ccc4F)cc3CC[C@@H]12 [Example 211, (+)-(4aR)-(10bR)-4-methyl-8-(2-fluoro-5-trifluoromethylphenyl)-10b-methyl-1,2,3,4,4a,5,6,10b-octahydrobenzo[f]-quinolin-3-one quinolin-3-one] | –
21 | 80 | 47 | CN1C(=O)CC[C@]2(C)c3ccc(-c4ccc5ccccc5c4)cc3CC[C@@H]12 [Example 71, (+)-(4aR)-(10bR)-4-methyl-8-(2-naphthyl)-10b-methyl-1,2,3,4,4a,5,6,10b-octahydrobenzo[f]quinolin-3-one] | –
22 | 78 | 26 | CN1C(=O)CC[C@]2(C)c3ccc(-c4ccc5c(c4)OCCO5)cc3CC[C@@H]12 [Example 29, (+)-(4aR)-(10bR)-4-methyl-8-(3,4-ethylenedioxyphenyl)-10b-methyl-1,2,3,4,4a,5,6,10b-octahydrobenzo[f]quinolin-3-one] | –
23 | 95 | 32 | CN1C(=O)CC[C@]2(C)c3ccc(-c4ccc(Cl)cc4)cc3CC[C@@H]12 [Example 50, (+)-(4aR)-(10bR)-4-methyl-8-(4-chlorophenyl)-10b-methyl-1,2,3,4,4a,5,6,10b-octahydrobenzo[f]quinolin-3-one] | percent inhibition of Type I AR ([1]; 0.3 μM, 50 nM [3H]-testosterone, pH 7.5, 25°, 180 min, compared to control reaction mixtures): 94%
24 | 83 | 46 | CCCCc1ccc(-c2ccc3c(c2)CC[C@H]2N(C)C(=O)CC[C@]32C)cc1 [Example 76, (+)-(4aR)-(10bR)-4-methyl-8-(4-n-butylphenyl)-10b-methyl-1,2,3,4,4a,5,6,10b-octahydrobenzo[f]quinolin-3-one] | –
25 | 34 | 39 | CN1C(=O)CC[C@]2(C)c3ccc(-c4ccc(S(C)(=O)=O)cc4)cc3CC[C@@H]12 [Example 204, (+)-(4aR)-(10bR)-4-methyl-8-(4-methylsulfonylphenyl)-10b-methyl-1,2,3,4,4a,5,6,10b-octahydrobenzo[f]quinolin-3-one] | –
